How the values were obtained:
Assay type in all cases: in vivo
[1] = test system: early watergrass (Echinochloa oryzicola Vasing); test: Test Example 1: herbicidal effect by soil application to paddy field; settings: paddy field soil application; active ingredient 1,000 g per 1 hectare; wettable powder added dropwise to water surface the day after sowing; examined on the 21st day after application
Outline: (§1)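 Under greenhouse conditions, seeds sown on puddled paddy soil in 100 cm2 pots under 3 cm of standing water received the test compound; injury was assessed with a standard scoring scheme three weeks (day 21) after treatment.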

[2] = test system: heartshape false pickerelweed (Monochoria vaginalis (Burm.f.) C.Presl); test: as above; settings: paddy field soil application; active ingredient 1,000 g per 1 hectare; wettable powder added dropwise to water surface the day after sowing; examined on the 21st day after application
Outline: as §1

[3] = test system: Japanese bulrush (Scirpus juncoides Roxb.); test: as above; settings: paddy field soil application; active ingredient 1,000 g per 1 hectare; wettable powder added dropwise to water surface the day after sowing; examined on the 21st day after application
Outline: as §1

[4] = test system: velvetleaf (Abutilon theophrasti medicus); test: Test Example 2: herbicidal effect by soil application to upland field; settings: soil surface spray, upland field soil, 1,000 g active ingredient per hectare, 21st day after application
Outline: (§2)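 Scoring on a standard scale took place 21 days after application, with plants kept in a greenhouse. Active ingredient (1,000 g/ha, as diluted wettable powder, 1,000 L/ha) was sprayed evenly onto soil directly after sowing and covering seeds.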

[5] = test system: barnyardgrass (Echinochloa crus-galli (L.) P. Beauv. var. crus-galli); test: as above; settings: soil surface spray, upland field soil, 1,000 g active ingredient per hectare, 21st day after application
Outline: as §2

[6] = test system: green foxtail (Setaria viridis (L.) P. Beauv.); test: as above; settings: soil surface spray, upland field soil, 1,000 g active ingredient per hectare, 21st day after application
Outline: as §2

[7] = test system: slender amaranth (Amaranthus viridis L.); test: as above; settings: soil surface spray, upland field soil, 1,000 g active ingredient per hectare, 21st day after application
Outline: as §2

[8] = test system: velvetleaf (Abutilon theophrasti medicus); test: Test Example 3: herbicidal effect by application to upland field (foliage treatment); settings: 14th day after application; for herbicidal effect, Velvetleaf: foliage treatment, 1,000 g active ingredient per 1 hectare, greenhouse
Outline: (§3)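 Read-out is a visual herbicidal-effect grade on a standard scale, taken on the 14th day after a single foliar spray. The spray was wettable powder diluted in water, 1,000 g active ingredient/ha at 1,000 L/ha, applied to greenhouse plants two weeks after sowing.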

[9] = test system: barnyardgrass (Echinochloa crus-galli (L.) P. Beauv. var. crus-galli); test: as above; settings: 14th day after application; for herbicidal effect, Barnyardgrass: foliage treatment, 1,000 g active ingredient per 1 hectare, greenhouse
Outline: as §3

[10] = test system: green foxtail (Setaria viridis (L.) P. Beauv.); test: as above; settings: 14th day after application; for herbicidal effect, Green Foxtail: foliage treatment, 1,000 g active ingredient per 1 hectare, greenhouse
Outline: as §3

[11] = test system: slender amaranth (Amaranthus viridis L.); test: as above; settings: 14th day after application; for herbicidal effect, Slender Amaranth: foliage treatment, 1,000 g active ingredient per 1 hectare, greenhouse
Outline: as §3

[12] = foliage treatment, plants grown two weeks, 1,000 g active ingredient per hectare

COCC(C)n1c(C(F)(F)F)ccc(C(=O)c2cnn(C)c2O)c1=O (stereo not drawn) [IV-36]
herbicidal effect, Echinochloa oryzicola Vasing [1]: 5 (90% or more of herbicidal effect and crop phytotoxicity) | herbicidal effect, Monochoria vaginalis (Burm. f.) C. Presl [2]: 5 (90% or more of herbicidal effect and crop phytotoxicity) | herbicidal effect, Scirpus juncoides Roxb. [3]: 5 (90% or more of herbicidal effect and crop phytotoxicity) | herbicidal effect (index), Velvetleaf [4]: 5 (90% or more of herbicidal effect and crop phytotoxicity) | herbicidal effect (index), Barnyardgrass [5]: 5 (90% or more of herbicidal effect and crop phytotoxicity) | herbicidal effect (index), Green Foxtail [6]: 3 (50 to less than 70% of herbicidal effect and crop phytotoxicity) | herbicidal effect (index), Slender Amaranth [7]: 5 (90% or more of herbicidal effect and crop phytotoxicity) | herbicidal effect, Velvetleaf [8]: 5 (90% or more of herbicidal effect and crop phytotoxicity) | herbicidal effect, Barnyardgrass [9]: 5 (90% or more of herbicidal effect and crop phytotoxicity) | herbicidal effect, Green Foxtail [10]: 5 (90% or more of herbicidal effect and crop phytotoxicity) | herbicidal effect, Slender Amaranth [11]: 5 (90% or more of herbicidal effect and crop phytotoxicity)

CCn1ncc(C(=O)c2ccc(C(F)(F)F)n(CC3CCCO3)c2=O)c1O (stereo not drawn) [IV-205]
herbicidal effect, Echinochloa oryzicola Vasing [1]: 5 (90% or more of herbicidal effect and crop phytotoxicity) | herbicidal effect, Monochoria vaginalis (Burm. f.) C. Presl [2]: 5 (90% or more of herbicidal effect and crop phytotoxicity) | herbicidal effect, Scirpus juncoides Roxb. [3]: 5 (90% or more of herbicidal effect and crop phytotoxicity) | herbicidal effect (index), Velvetleaf [4]: 5 (90% or more of herbicidal effect and crop phytotoxicity) | herbicidal effect (index), Barnyardgrass [5]: 5 (90% or more of herbicidal effect and crop phytotoxicity) | herbicidal effect (index), Green Foxtail [6]: 5 (90% or more of herbicidal effect and crop phytotoxicity) | herbicidal effect (index), Slender Amaranth [7]: 5 (90% or more of herbicidal effect and crop phytotoxicity) | herbicidal effect, Velvetleaf [8]: 5 (90% or more of herbicidal effect and crop phytotoxicity) | herbicidal effect, Barnyardgrass [9]: 5 (90% or more of herbicidal effect and crop phytotoxicity) | herbicidal effect, Green Foxtail [10]: 5 (90% or more of herbicidal effect and crop phytotoxicity) | herbicidal effect, Slender Amaranth [11]: 5 (90% or more of herbicidal effect and crop phytotoxicity)

O=C1CCCC(O)=C1C(=O)c1ccc(C(F)(F)F)n(-c2cc(F)cc(F)c2)c1=O [I-106]
herbicidal effect, Echinochloa oryzicola Vasing [1]: 5 (90% or more of herbicidal effect and crop phytotoxicity) | herbicidal effect, Monochoria vaginalis (Burm. f.) C. Presl [2]: 5 (90% or more of herbicidal effect and crop phytotoxicity) | herbicidal effect, Scirpus juncoides Roxb. [3]: 5 (90% or more of herbicidal effect and crop phytotoxicity) | herbicidal effect (index), Velvetleaf [4]: 5 (90% or more of herbicidal effect and crop phytotoxicity) | herbicidal effect (index), Barnyardgrass [5]: 5 (90% or more of herbicidal effect and crop phytotoxicity) | herbicidal effect (index), Green Foxtail [6]: 5 (90% or more of herbicidal effect and crop phytotoxicity) | herbicidal effect (index), Slender Amaranth [7]: 5 (90% or more of herbicidal effect and crop phytotoxicity) | herbicidal effect (index), Velvetleaf [8, 12]: 5 (90% or more of herbicidal effect and crop phytotoxicity) | herbicidal effect (index), Barnyardgrass [9, 12]: 5 (90% or more of herbicidal effect and crop phytotoxicity) | herbicidal effect (index), Green Foxtail [10, 12]: 5 (90% or more of herbicidal effect and crop phytotoxicity) | herbicidal effect (index), Slender Amaranth [11, 12]: 5 (90% or more of herbicidal effect and crop phytotoxicity)

Source: patent publication US8076487B2, “Pyridone derivative and herbicide” (Kumiai Chemical Industry Co., Ltd., priority 2006, dated 2011)
